Test results as given in patent US7875727B2, “Benzimidazole vascular damaging agents” (Angiogene Pharmaceuticals Ltd., priority 1999, dated 2011).

How the values were obtained:
[1] = system: tumour vasculature in CaNT tumour-bearing mice; assay: Activity against tumour vasculature measured by fluorescent dye (Hoechst 33342 functional vascular volume); type: in vivo; conditions: compared to control
Description: Activity Against Tumour Vasculature Measured by Fluorescent Dye.
One minute later, animals were killed and tumours excised and frozen; 10 μm sections were cut at 3 different levels and observed under UV illumination using an Olympus microscope equipped with epifluorescence. […] All estimates were based on counting a minimum of 100 fields from sections cut at the 3 different levels. Results are expressed as percentage reduction in vascular volume compared to control.

vasculature = conditions: administered at the MTD; cited from earlier work
[2] = 50 mg/kg i.p., 24 h after drug treatment
[3] = 500 mg/kg i.p., 6 h after drug treatment

Structure (SMILES)	% Reduction in vascular volume [1, 2] [%]	further results
COC(=O)Nc1nc2cc(Oc3ccc(OP(=O)(O)O)cc3)ccc2[nH]1 [Example 14, Methyl [5(6)-(4-phosphonooxyphenoxy)-1H-benzimidazol-2yl]carbamate]	39	
COC(=O)Nc1nc2cc(Oc3cccc(N)c3)ccc2[nH]1 [Example 18, Methyl [5(6)-(3-aminophenoxy)-1H-benzimidazol-2yl]carbamate]	47	
COC(=O)Nc1nc2cc(Oc3ccccc3O)ccc2[nH]1 [Example 20, Methyl [5(6)-(2-hydroxyphenoxy)-1H-benzimidazol-2yl]carbamate]	69	
COC(=O)Nc1nc2cc(C(=O)c3ccc(OP(=O)(O)O)cc3)ccc2[nH]1 [Example 2, Methyl [5(6)-(4-phosphonooxybenzoyl)-1H-benzimidazol-2yl]carbamate]		% Reduction in vascular volume [1, 3]: 80%
CC(=O)O[C@@]12CO[C@@H]1C[C@H](O)[C@@]1(C)C(=O)[C@H](O)C3=C(C)[C@@H](OC(=O)[C@H](O)[C@@H](NC(=O)OC(C)(C)C)c4ccccc4)C[C@@](O)([C@@H](OC(=O)c4ccccc4)[C@H]21)C3(C)C [docetaxel]		vascular-damaging activity (vasculature): no vascular-damaging activity
CCCOc1ccc2[nH]c(NC(=O)OC)nc2c1 [Oxibendazole, reference compound]		% Reduction in vascular volume ([1]; 100 mg/kg i.p., 6 h after drug treatment): 43%
COC(=O)Nc1nc2cc(Oc3cccc(O)c3)ccc2[nH]1 [Example 21, Methyl [5(6)-(3-hydroxyphenoxy)-1H-benzimxdazol-2yl]carbamate]	74	
COC(=O)Nc1nc2cc(Sc3ccc(O)cc3)ccc2[nH]1 [Example 12, Methyl [5(6)-(4-hydroxyphenylthio)-1H-benzimidazol-2yl]carbamate]	51	
COC(=O)Nc1nc2cc(C(=O)c3ccccc3)ccc2[nH]1 [Mebendazole, reference compound]		% Reduction in vascular volume [1, 3]: 56%
COC(=O)Nc1nc2cc(Sc3ccc(N)cc3)ccc2[nH]1 [Example 4, Methyl [5(6)-(4-aminophenylthio)-1H-benzimidazol-2yl]carbamate]	53	
COC(=O)Nc1nc2cc(C(=NO)c3ccc(O)cc3)ccc2[nH]1 [Example 15, Methyl [5(6)-(4-hydroxy-@-hydroxyiminobenzyl)-1H-benzimidazol-2yl]carbamate]	61	
COC(=O)Nc1nc2cc(Sc3ccc(NC(=O)[C@H](C)N)cc3)ccc2[nH]1 [Example 5, Methyl [5(6)-(4-alanylaminophenylthio)-IH-benzimidazol-2yl]carbamate]	99	
COC(=O)Nc1nc2cc(Oc3ccc(O)cc3)ccc2[nH]1 [Example 19, Methyl [5(6)-(4-hydroxyphenoxy)-1H-benzimidazol-2yl]carbamate]	88	
COC(=O)Nc1nc2cc(Sc3ccccc3)ccc2[nH]1 [Fenbendazole, reference compound]		% Reduction in vascular volume [1, 3]: 44%
COC(=O)Nc1nc2cc(Oc3ccc(N)cc3)ccc2[nH]1 [Example 17, Methyl [5(6)-(4-aminophenoxy)-1H-benzimidazol-2yl]carbamate]	62	
CCCSc1ccc2[nH]c(NC(=O)OC)nc2c1 [Albendazole, reference compound]		% Reduction in vascular volume [1, 3]: 51%
COC(=O)Nc1nc2cc(Oc3ccc(NC(C)=O)cc3)ccc2[nH]1 [Example 16, Methyl [5(6)-(4-(acetylamino)phenoxy)-1H-benzimidazol-2yl]carbamate]	56	
COC(=O)Nc1nc2cc(C(=O)c3cccs3)ccc2[nH]1 [Nocodazole, reference compound]		% Reduction in vascular volume ([1]; 100 mg/kg i.p., 24 h after drug treatment): 23%
COC(=O)Nc1nc2cc(C(=O)c3ccc(O)cc3)ccc2[nH]1 [Example 1, Methyl [5(6)-(4-hydroxybenzoyl)-IH-benzimidazol-2vl]carbamate]		% Reduction in vascular volume [1, 3]: 81%
COC(=O)Nc1nc2cc(Sc3ccc(OP(=O)(O)O)cc3)ccc2[nH]1 [Example 3, Methyl [5(6)-(4-phosphonooxyphenylthio)-IH-benzimidazol-2yl]carbamate]	22	
